By IC50 is commonly meant the concentration needed to halve the response being measured.

The subject of the first data set is L6. The data set is described as follows: Cytotoxicity against rat L6 cells assessed as inhibition of cell viability after 48 hrs by MTT assay. As to conditions: Rattus norvegicus, L6, 48 h. It is filed as cell-based. (In general: Formazan colour is commonly taken as a measure of viable cells.)
Turning to `O=c1[nH]cnc2c1ncn2[C@@H]1O[C@H](CO)[C@@H](O)[C@H]1O` [INOSINE], the IC50 is more than 250 µM.
On the same count and under the same terms, the same measure for `Nc1nc(=O)n([C@H]2C[C@H](O)[C@@H](CO)O2)cc1C(F)(F)F`: 155 µM; for `Nc1nc2c(nc(C(F)(F)F)n2[C@H]2C[C@H](O)[C@@H](CO)O2)c(=O)[nH]1`: 234 µM; for `O=c1[nH]cnc2c1nc(C(F)(F)F)n2[C@@H]1O[C@H](CO)[C@@H](O)[C@H]1O`: 195 µM.
Still for that read-out and setting: the result for `Nc1ncnc2c1ncn2[C@H]1C[C@H](O)[C@@H](CO)O1` [DEOXYADENOSINE] reads more than 250 µM; that for `Nc1nc(O)c2ncn([C@H]3C[C@H](O)[C@@H](CO)O3)c2n1` [DEOXYGUANOSINE], more than 250 µM; that for `Nc1ccn([C@H]2C[C@H](O)[C@@H](CO)O2)c(=O)n1` [DOXECITINE], more than 250 µM.
Regarding `Nc1ncnc2c1nc(C(F)(F)F)n2[C@H]1C[C@H](O)[C@@H](CO)O1`, the IC50 is 225 µM.

Staying with this data set, now noted: rat, l6, 48 h.
As to `Nc1nc2c(nc(C(F)(F)F)n2[C@H]2C[C@H](O)[C@@H](CO)O2)c(=O)[nH]1`, the “inhibition (INH)” value is on record as “Dose-dependent effect”.

The test system of the next data set is HaCaT. The data set is described as follows: Cytotoxicity against human HaCaT cells assessed as inhibition of cell viability after 48 hrs by MTT assay. It is filed as cell-based. The settings on record: Homo sapiens, HaCaT.
Take `O=c1[nH]cnc2c1ncn2[C@@H]1O[C@H](CO)[C@@H](O)[C@H]1O` [INOSINE]: the IC50 was more than 250 µM.
Take `Nc1nc(=O)n([C@H]2C[C@H](O)[C@@H](CO)O2)cc1C(F)(F)F`: the IC50 worked out at 140 µM.
On the same count and under the same terms, the result for `Nc1nc2c(nc(C(F)(F)F)n2[C@H]2C[C@H](O)[C@@H](CO)O2)c(=O)[nH]1` reads 210 µM.
As to `O=c1[nH]cnc2c1nc(C(F)(F)F)n2[C@@H]1O[C@H](CO)[C@@H](O)[C@H]1O`, the IC50 worked out at 170 µM.
The same measure, in the same setting: the result for `Nc1ncnc2c1ncn2[C@H]1C[C@H](O)[C@@H](CO)O1` [DEOXYADENOSINE] reads more than 250 µM; that for `Nc1nc(O)c2ncn([C@H]3C[C@H](O)[C@@H](CO)O3)c2n1` [DEOXYGUANOSINE], more than 250 µM; that for `Nc1ccn([C@H]2C[C@H](O)[C@@H](CO)O2)c(=O)n1` [DOXECITINE], more than 250 µM.
The same measure, in the same setting: the result for `Nc1ncnc2c1nc(C(F)(F)F)n2[C@H]1C[C@H](O)[C@@H](CO)O1` reads 214 µM.

Staying with this data set, now noted: human, hacat.
Consider `Nc1nc2c(nc(C(F)(F)F)n2[C@H]2C[C@H](O)[C@@H](CO)O2)c(=O)[nH]1`, for which the “inhibition (INH)” value is reported as “Dose-dependent effect”.

The next data set has as its system DU-145. Nature of the data set: Cytotoxicity against human DU145 cells assessed as inhibition of cell viability after 48 hrs by MTT assay. Format: functional, cell-based.
Conditions: not given
In the case of `Nc1nc2c(nc(C(F)(F)F)n2[C@H]2C[C@H](O)[C@@H](CO)O2)c(=O)[nH]1`, the inhibition entry is “Dose-dependent effect”.

The data set is the same for the next values; noted with them: DU-145, 48 h.
For `O=c1[nH]cnc2c1ncn2[C@@H]1O[C@H](CO)[C@@H](O)[C@H]1O` [INOSINE], the IC50 was more than 250 µM.
The same measure, in the same setting: the same measure for `Nc1nc(=O)n([C@H]2C[C@H](O)[C@@H](CO)O2)cc1C(F)(F)F`: 25 µM.
The same measure, in the same setting: the result for `Nc1nc2c(nc(C(F)(F)F)n2[C@H]2C[C@H](O)[C@@H](CO)O2)c(=O)[nH]1` reads 72 µM; that for `O=c1[nH]cnc2c1nc(C(F)(F)F)n2[C@@H]1O[C@H](CO)[C@@H](O)[C@H]1O`, 131 µM; that for `Nc1ncnc2c1ncn2[C@H]1C[C@H](O)[C@@H](CO)O1` [DEOXYADENOSINE], more than 250 µM.
Still for that read-out and setting: the same measure for `Nc1nc(O)c2ncn([C@H]3C[C@H](O)[C@@H](CO)O3)c2n1` [DEOXYGUANOSINE]: more than 250 µM; for `Nc1ccn([C@H]2C[C@H](O)[C@@H](CO)O2)c(=O)n1` [DOXECITINE]: more than 250 µM.
As for `Nc1ncnc2c1nc(C(F)(F)F)n2[C@H]1C[C@H](O)[C@@H](CO)O1`, the IC50 stood at 50 µM.

A further data set has as its system C6. Nature of the data set: Cytotoxicity against rat C6 cells assessed as inhibition of cell viability after 48 hrs by MTT assay. Format: functional, cell-based.
Conditions: not given
In the case of `Nc1nc2c(nc(C(F)(F)F)n2[C@H]2C[C@H](O)[C@@H](CO)O2)c(=O)[nH]1`, the inhibition result is “Dose-dependent effect”.

The data set is the same for the next values; noted with them: C6, 48 h.
For `O=c1[nH]cnc2c1ncn2[C@@H]1O[C@H](CO)[C@@H](O)[C@H]1O` [INOSINE], the IC50 was more than 250 µM.
Turning to `Nc1nc(=O)n([C@H]2C[C@H](O)[C@@H](CO)O2)cc1C(F)(F)F`, the IC50 came out at 44 µM.
On the same count and under the same terms, the result for `Nc1nc2c(nc(C(F)(F)F)n2[C@H]2C[C@H](O)[C@@H](CO)O2)c(=O)[nH]1` reads 92 µM; that for `O=c1[nH]cnc2c1nc(C(F)(F)F)n2[C@@H]1O[C@H](CO)[C@@H](O)[C@H]1O`, 142 µM.
Still for that read-out and setting: the result for `Nc1ncnc2c1ncn2[C@H]1C[C@H](O)[C@@H](CO)O1` [DEOXYADENOSINE] reads more than 250 µM; that for `Nc1nc(O)c2ncn([C@H]3C[C@H](O)[C@@H](CO)O3)c2n1` [DEOXYGUANOSINE], more than 250 µM; that for `Nc1ccn([C@H]2C[C@H](O)[C@@H](CO)O2)c(=O)n1` [DOXECITINE], more than 250 µM.
Still for that read-out and setting: the same measure for `Nc1ncnc2c1nc(C(F)(F)F)n2[C@H]1C[C@H](O)[C@@H](CO)O1`: 81 µM.

In the next data set the test system is MCF7. The data set is described as follows: Cytotoxicity against human MCF7 cells assessed as inhibition of cell viability after 48 hrs by MTT assay. Format: functional, cell-based.
Conditions: not given
Turning to `Nc1nc2c(nc(C(F)(F)F)n2[C@H]2C[C@H](O)[C@@H](CO)O2)c(=O)[nH]1`, the inhibition result is “Dose-dependent effect”.

The data set is the same for the next values; noted with them: MCF7, 48 h.
Turning to `O=c1[nH]cnc2c1ncn2[C@@H]1O[C@H](CO)[C@@H](O)[C@H]1O` [INOSINE], the IC50 was more than 250 µM.
Still for that read-out and setting: the result for `Nc1nc(=O)n([C@H]2C[C@H](O)[C@@H](CO)O2)cc1C(F)(F)F` reads 32 µM.
Consider `Nc1nc2c(nc(C(F)(F)F)n2[C@H]2C[C@H](O)[C@@H](CO)O2)c(=O)[nH]1`, for which the IC50 worked out at 76 µM.
Consider `O=c1[nH]cnc2c1nc(C(F)(F)F)n2[C@@H]1O[C@H](CO)[C@@H](O)[C@H]1O`, for which the IC50 is 105 µM.
Still for that read-out and setting: the result for `Nc1ncnc2c1ncn2[C@H]1C[C@H](O)[C@@H](CO)O1` [DEOXYADENOSINE] reads more than 250 µM; that for `Nc1nc(O)c2ncn([C@H]3C[C@H](O)[C@@H](CO)O3)c2n1` [DEOXYGUANOSINE], more than 250 µM.
Still for that read-out and setting: the same measure for `Nc1ccn([C@H]2C[C@H](O)[C@@H](CO)O2)c(=O)n1` [DOXECITINE]: more than 250 µM.
Still for that read-out and setting: the same measure for `Nc1ncnc2c1nc(C(F)(F)F)n2[C@H]1C[C@H](O)[C@@H](CO)O1`: 65 µM.

The next data set relates to Hepatitis B virus. Nature of the data set: Antiviral activity against Hepatitis B virus. It is filed as functional, organism-based.
Conditions: not given
`Nc1ccn([C@H]2C=C(C(F)(F)F)[C@@H](CO)O2)c(=O)n1` came in with an IC50 of 10 µM.
The same measure, in the same setting: the result for `Nc1ncnc2c1ncn2[C@H]1C=C(C(F)(F)F)[C@@H](CO)O1` reads 5 µM.

The values are drawn from ChEMBL document CHEMBL3217414, “Trifluoromethyl derivatives of canonical nucleosides: synthesis and bioactivity studies” (Medchemcomm, 2013).
